Measured values: patent US11571411B2, “Use of a bisamide derivative of malonic acid for treating allergic and other diseases in humans and animals” (PHARMENTERPRISES ALLERGY LLC, priority 2018, dated 2023)

System: histamine-induced nasal congestion model
Experiment: Histamine-induced nasal congestion model in dogs, oral administration
Assay type: in vivo, Beagle dogs
Protocol: A histamine-induced nasal congestion model in dogs was performed according to the standard procedure [Tiniakov R. L., Tiniakova O. P., McLeod R. L., Hey J. A., Yeates D. B. Canine model of nasal congestion and allergic rhinitis//J Appl Physiol. 2003. V.94(5). P.1821-1828]. Beagle dogs were injected in the nasal cavity with a 5% histamine solution in a volume of 250 μl/nostril. The volume of the nasal cavity of the right and left nostrils was measured using a rhinometer before and 5, 10, 15, 20, 30, 40, 50 and 60 minutes after administration of histamine. Three experiments were performed, in which Compound I was administered orally once at different times: 1) 30 minutes before administration of histamine; 2) 1 hour before administration of histamine; and 3) 6 hours before administration of histamine, and one experiment was performed, in which Compound I was administered orally once daily for 14 days, the last administration was carried out 1 hour before administration of histamine.

[1] = oral 1 hour before histamine, 0.005 mg/kg, 5 minutes after histamine
[2] = oral 1 hour before histamine, 0.005 mg/kg, 10 minutes after histamine
[3] = oral 1 hour before histamine, 0.005 mg/kg, 15 minutes after histamine
[4] = oral 1 hour before histamine, 0.005 mg/kg, 20 minutes after histamine
[5] = oral 1 hour before histamine, 0.005 mg/kg, 30 minutes after histamine
[6] = oral 1 hour before histamine, 0.005 mg/kg, 40 minutes after histamine
[7] = oral 1 hour before histamine, 0.005 mg/kg, 50 minutes after histamine
[8] = oral 1 hour before histamine, 0.005 mg/kg, 60 minutes after histamine
[9] = oral 1 hour before histamine, 0.005 mg/kg, before histamine administration
[10] = oral 1 hour before histamine, 0.05 mg/kg, 5 minutes after histamine
[11] = oral 1 hour before histamine, 0.05 mg/kg, 10 minutes after histamine
[12] = oral 1 hour before histamine, 0.05 mg/kg, 15 minutes after histamine
[13] = oral 1 hour before histamine, 0.05 mg/kg, 20 minutes after histamine
[14] = oral 1 hour before histamine, 0.05 mg/kg, 30 minutes after histamine
[15] = oral 1 hour before histamine, 0.05 mg/kg, 40 minutes after histamine
[16] = oral 1 hour before histamine, 0.05 mg/kg, 50 minutes after histamine
[17] = oral 1 hour before histamine, 0.05 mg/kg, 60 minutes after histamine
[18] = oral 1 hour before histamine, 0.05 mg/kg, before histamine administration
[19] = oral 1 hour before histamine, 0.54 mg/kg, 5 minutes after histamine
[20] = oral 1 hour before histamine, 0.54 mg/kg, 10 minutes after histamine
[21] = oral 1 hour before histamine, 0.54 mg/kg, 15 minutes after histamine
[22] = oral 1 hour before histamine, 0.54 mg/kg, 20 minutes after histamine
[23] = oral 1 hour before histamine, 0.54 mg/kg, 30 minutes after histamine
[24] = oral 1 hour before histamine, 0.54 mg/kg, 40 minutes after histamine
[25] = oral 1 hour before histamine, 0.54 mg/kg, 50 minutes after histamine
[26] = oral 1 hour before histamine, 0.54 mg/kg, 60 minutes after histamine
[27] = oral 1 hour before histamine, 0.54 mg/kg, before histamine administration
[28] = oral 6 hours before histamine, 0.005 mg/kg, 5 minutes after histamine
[29] = oral 6 hours before histamine, 0.005 mg/kg, 10 minutes after histamine
[30] = oral 6 hours before histamine, 0.005 mg/kg, 15 minutes after histamine
[31] = oral 6 hours before histamine, 0.005 mg/kg, 20 minutes after histamine
[32] = oral 6 hours before histamine, 0.005 mg/kg, 30 minutes after histamine
[33] = oral 6 hours before histamine, 0.005 mg/kg, 40 minutes after histamine
[34] = oral 6 hours before histamine, 0.005 mg/kg, 50 minutes after histamine
[35] = oral 6 hours before histamine, 0.005 mg/kg, 60 minutes after histamine
[36] = oral 6 hours before histamine, 0.005 mg/kg, before histamine administration
[37] = oral 6 hours before histamine, 0.05 mg/kg, 5 minutes after histamine
[38] = oral 6 hours before histamine, 0.05 mg/kg, 10 minutes after histamine
[39] = oral 6 hours before histamine, 0.05 mg/kg, 15 minutes after histamine
[40] = oral 6 hours before histamine, 0.05 mg/kg, 20 minutes after histamine
[41] = oral 6 hours before histamine, 0.05 mg/kg, 30 minutes after histamine
[42] = oral 6 hours before histamine, 0.05 mg/kg, 40 minutes after histamine
[43] = oral 6 hours before histamine, 0.05 mg/kg, 50 minutes after histamine
[44] = oral 6 hours before histamine, 0.05 mg/kg, 60 minutes after histamine
[45] = oral 6 hours before histamine, 0.05 mg/kg, before histamine administration
[46] = oral 6 hours before histamine, 0.54 mg/kg, 5 minutes after histamine
[47] = oral 6 hours before histamine, 0.54 mg/kg, 10 minutes after histamine
[48] = oral 6 hours before histamine, 0.54 mg/kg, 15 minutes after histamine
[49] = oral 6 hours before histamine, 0.54 mg/kg, 20 minutes after histamine
[50] = oral 6 hours before histamine, 0.54 mg/kg, 30 minutes after histamine

O=C(CC(=O)NCCc1cnc[nH]1)NCCc1cnc[nH]1 [Compound I, N,N′-bis(2-(1H-imidazol-5-yl)ethyl)malonamide]
onset of the therapeutic effect (after a single oral administration, dogs): ≤ 30 min | Volume of the nasal cavity, left nostril [1]: 3.1 ± 0.2$ cm^3 | Volume of the nasal cavity, right nostril [1]: 3.1 ± 0.5$ cm^3 | Volume of the nasal cavity, left nostril [2]: 2.4 ± 0.4$ cm^3 | Volume of the nasal cavity, right nostril [2]: 2.1 ± 0.1$ cm^3 | Volume of the nasal cavity, left nostril [3]: 2.2 ± 0.2$ cm^3 | Volume of the nasal cavity, right nostril [3]: 2.8 ± 0.5$ cm^3 | Volume of the nasal cavity, left nostril [4]: 2.3 ± 0.14$ cm^3 | Volume of the nasal cavity, right nostril [4]: 2.6 ± 0.4$ cm^3 | Volume of the nasal cavity, left nostril [5]: 2.0 ± 0.2$ cm^3 | Volume of the nasal cavity, right nostril [5]: 3.0 ± 0.5$ cm^3 | Volume of the nasal cavity, left nostril [6]: 3.6 ± 0.2 cm^3 | Volume of the nasal cavity, right nostril [6]: 3.4 ± 0.2$ cm^3 | Volume of the nasal cavity, left nostril [7]: 3.3 ± 0.2$ cm^3 | Volume of the nasal cavity, right nostril [7]: 3.7 ± 0.24$ cm^3 | Volume of the nasal cavity, left nostril [8]: 3.4 ± 0.1$ cm^3 | Volume of the nasal cavity, right nostril [8]: 3.5 ± 0.2$ cm^3 | Volume of the nasal cavity, left nostril [9]: 3.9 ± 0.2 cm^3 | Volume of the nasal cavity, right nostril [9]: 4.3 ± 0.2 cm^3 | Volume of the nasal cavity, left nostril [10]: 2.8 ± 0.1$ cm^3 | Volume of the nasal cavity, right nostril [10]: 2.8 ± 0.3$ cm^3 | Volume of the nasal cavity, left nostril [11]: 3.1 ± 0.24$ cm^3 | Volume of the nasal cavity, right nostril [11]: 3.5 ± 0.24$ cm^3 | Volume of the nasal cavity, left nostril [12]: 3.1 ± 0.14$ cm^3 | Volume of the nasal cavity, right nostril [12]: 2.6 ± 0.2$ cm^3 | Volume of the nasal cavity, left nostril [13]: 2.5 ± 0.14$ cm^3 | Volume of the nasal cavity, right nostril [13]: 2.5 ± 0.14$ cm^3 | Volume of the nasal cavity, left nostril [14]: 3.6 ± 0.24 cm^3 | Volume of the nasal cavity, right nostril [14]: 3.5 ± 0.24 cm^3 | Volume of the nasal cavity, left nostril [15]: 3.7 ± 0.34 cm^3 | Volume of the nasal cavity, right nostril [15]: 3.7 ± 0.24 cm^3 | Volume of the nasal cavity, left nostril [16]: 3.2 ± 0.1$ cm^3 | Volume of the nasal cavity, right nostril [16]: 3.2 ± 0.1$ cm^3 | Volume of the nasal cavity, left nostril [17]: 3.2 ± 0.1$ cm^3 | Volume of the nasal cavity, right nostril [17]: 3.5 ± 0.1$ cm^3 | Volume of the nasal cavity, left nostril [18]: 4.0 ± 0.3 cm^3 | Volume of the nasal cavity, right nostril [18]: 4.2 ± 0.2 cm^3 | Volume of the nasal cavity, left nostril [19]: 2.6 ± 0.1$ cm^3 | Volume of the nasal cavity, right nostril [19]: 3.0 ± 0.4$ cm^3 | Volume of the nasal cavity, left nostril [20]: 3.4 ± 0.14$ cm^3 | Volume of the nasal cavity, right nostril [20]: 3.0 ± 0.24$ cm^3 | Volume of the nasal cavity, left nostril [21]: 2.5 ± 0.2$ cm^3 | Volume of the nasal cavity, right nostril [21]: 3.0 ± 0.24$ cm^3 | Volume of the nasal cavity, left nostril [22]: 2.5 ± 0.24$ cm^3 | Volume of the nasal cavity, right nostril [22]: 2.8 ± 0.34$ cm^3 | Volume of the nasal cavity, left nostril [23]: 3.8 ± 0.24 cm^3 | Volume of the nasal cavity, right nostril [23]: 3.6 ± 0.24$ cm^3 | Volume of the nasal cavity, left nostril [24]: 3.6 ± 0.14$ cm^3 | Volume of the nasal cavity, right nostril [24]: 3.6 ± 0.24$ cm^3 | Volume of the nasal cavity, left nostril [25]: 3.3 ± 0.3$ cm^3 | Volume of the nasal cavity, right nostril [25]: 3.4 ± 0.1$ cm^3 | Volume of the nasal cavity, left nostril [26]: 3.3 ± 0.2$ cm^3 | Volume of the nasal cavity, right nostril [26]: 3.2 ± 0.2$ cm^3 | Volume of the nasal cavity, left nostril [27]: 4.1 ± 0.1 cm^3 | Volume of the nasal cavity, right nostril [27]: 4.4 ± 0.1 cm^3 | Volume of the nasal cavity, left nostril [28]: 2.0 ± 0.3$ cm^3 | Volume of the nasal cavity, right nostril [28]: 2.1 ± 0.3$ cm^3 | Volume of the nasal cavity, left nostril [29]: 1.9 ± 0.1$ cm^3 | Volume of the nasal cavity, right nostril [29]: 2.0 ± 0.1$ cm^3 | Volume of the nasal cavity, left nostril [30]: 2.4 ± 0.24$ cm^3 | Volume of the nasal cavity, right nostril [30]: 2.4 ± 0.14$ cm^3 | Volume of the nasal cavity, left nostril [31]: 3.2 ± 0.24$ cm^3 | Volume of the nasal cavity, right nostril [31]: 3.2 ± 0.24$ cm^3 | Volume of the nasal cavity, left nostril [32]: 3.3 ± 0.14$ cm^3 | Volume of the nasal cavity, right nostril [32]: 3.4 ± 0.14$ cm^3 | Volume of the nasal cavity, left nostril [33]: 3.3 ± 0.2$ cm^3 | Volume of the nasal cavity, right nostril [33]: 3.4 ± 0.1$ cm^3 | Volume of the nasal cavity, left nostril [34]: 3.4 ± 0.1$ cm^3 | Volume of the nasal cavity, right nostril [34]: 3.5 ± 0.2$ cm^3 | Volume of the nasal cavity, left nostril [35]: 3.6 ± 0.2$ cm^3 | Volume of the nasal cavity, right nostril [35]: 3.4 ± 0.2$ cm^3 | Volume of the nasal cavity, left nostril [36]: 4.4 ± 0.1 cm^3 | Volume of the nasal cavity, right nostril [36]: 4.4 ± 0.2 cm^3 | Volume of the nasal cavity, left nostril [37]: 2.2 ± 0.1$ cm^3 | Volume of the nasal cavity, right nostril [37]: 2.2 ± 0.2$ cm^3 | Volume of the nasal cavity, left nostril [38]: 2.4 ± 0.2$ cm^3 | Volume of the nasal cavity, right nostril [38]: 2.3 ± 0.2$ cm^3 | Volume of the nasal cavity, left nostril [39]: 2.0 ± 0.24$ cm^3 | Volume of the nasal cavity, right nostril [39]: 2.0 ± 0.14$ cm^3 | Volume of the nasal cavity, left nostril [40]: 3.4 ± 0.14$ cm^3 | Volume of the nasal cavity, right nostril [40]: 3.2 ± 0.24$ cm^3 | Volume of the nasal cavity, left nostril [41]: 3.4 ± 0.24$ cm^3 | Volume of the nasal cavity, right nostril [41]: 3.4 ± 0.14$ cm^3 | Volume of the nasal cavity, left nostril [42]: 3.1 ± 0.1$ cm^3 | Volume of the nasal cavity, right nostril [42]: 3.1 ± 0.1$ cm^3 | Volume of the nasal cavity, left nostril [43]: 3.4 ± 0.1$ cm^3 | Volume of the nasal cavity, right nostril [43]: 3.4 ± 0.1$ cm^3 | Volume of the nasal cavity, left nostril [44]: 3.6 ± 0.1$ cm^3 | Volume of the nasal cavity, right nostril [44]: 3.5 ± 0.1$ cm^3 | Volume of the nasal cavity, left nostril [45]: 4.2 ± 0.2 cm^3 | Volume of the nasal cavity, right nostril [45]: 4.1 ± 0.1 cm^3 | Volume of the nasal cavity, left nostril [46]: 2.7 ± 0.2$ cm^3 | Volume of the nasal cavity, right nostril [46]: 2.7 ± 0.3$ cm^3 | Volume of the nasal cavity, left nostril [47]: 2.8 ± 0.24$ cm^3 | Volume of the nasal cavity, right nostril [47]: 2.8 ± 0.24$ cm^3 | Volume of the nasal cavity, left nostril [48]: 2.8 ± 0.14$ cm^3 | Volume of the nasal cavity, right nostril [48]: 2.8 ± 0.24$ cm^3 | Volume of the nasal cavity, left nostril [49]: 3.4 ± 0.14$ cm^3 | Volume of the nasal cavity, right nostril [49]: 3.5 ± 0.14$ cm^3 | Volume of the nasal cavity, left nostril [50]: 3.5 ± 0.24$ cm^3 | Volume of the nasal cavity, right nostril [50]: 3.4 ± 0.14$ cm^3
